Data as given in article PMC7879681, “Baicalein inhibits heparin-induced Tau aggregation by initializing non-toxic Tau oligomer formation” (Cell Communication and Signaling : CCS, 2021).

Target: T1, full-length Tau (hTau40WT) (Homo sapiens, UniProt P10636)
T1 construct: gene MAPT; recombinant wild type human full-length Tau (hTau40WT)
Experiment: ThS fluorescence inhibition of heparin-induced aggregation of purified Tau; supported by ANS, SDS-PAGE, CD, TEM; dissolves preformed fibrils (DC50 […])
Format: biochemical

T1 sequence (P10636 2-441 isoform P10636-8): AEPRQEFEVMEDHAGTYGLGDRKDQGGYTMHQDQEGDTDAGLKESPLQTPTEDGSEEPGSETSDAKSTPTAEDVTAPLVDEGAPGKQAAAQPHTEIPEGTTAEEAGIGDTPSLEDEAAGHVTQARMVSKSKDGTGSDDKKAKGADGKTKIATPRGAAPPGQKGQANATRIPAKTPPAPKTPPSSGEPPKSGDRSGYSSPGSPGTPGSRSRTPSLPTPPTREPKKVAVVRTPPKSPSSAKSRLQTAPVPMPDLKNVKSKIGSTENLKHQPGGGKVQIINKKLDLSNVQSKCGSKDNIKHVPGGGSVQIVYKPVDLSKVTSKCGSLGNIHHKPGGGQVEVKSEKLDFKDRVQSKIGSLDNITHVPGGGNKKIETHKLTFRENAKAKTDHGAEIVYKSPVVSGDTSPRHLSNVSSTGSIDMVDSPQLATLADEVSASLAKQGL

O=c1cc(-c2ccccc2)oc2cc(O)c(O)c(O)c12 [Baicalein]
IC50: 27.7 µM
